ChEMBL document CHEMBL2384919, “Identification of New Nonsteroidal RORα Ligands; Related Structure-Activity Relationships and Docking Studies” (ACS Med Chem Lett, 2013)
The source made the active and inactive calls. No cut-off for these calls is given here.

Legend:
[1] = molecular target: T1, Nuclear receptor ROR-alpha (Homo sapiens) (UniProt P35398); assay: Partial agonist activity at GST-fussed RORalpha (unknown origin) assessed as recruitment of TIF2 mutant-BAP protein after overnight incubation by pull down assay
T1 sequence (whole entry): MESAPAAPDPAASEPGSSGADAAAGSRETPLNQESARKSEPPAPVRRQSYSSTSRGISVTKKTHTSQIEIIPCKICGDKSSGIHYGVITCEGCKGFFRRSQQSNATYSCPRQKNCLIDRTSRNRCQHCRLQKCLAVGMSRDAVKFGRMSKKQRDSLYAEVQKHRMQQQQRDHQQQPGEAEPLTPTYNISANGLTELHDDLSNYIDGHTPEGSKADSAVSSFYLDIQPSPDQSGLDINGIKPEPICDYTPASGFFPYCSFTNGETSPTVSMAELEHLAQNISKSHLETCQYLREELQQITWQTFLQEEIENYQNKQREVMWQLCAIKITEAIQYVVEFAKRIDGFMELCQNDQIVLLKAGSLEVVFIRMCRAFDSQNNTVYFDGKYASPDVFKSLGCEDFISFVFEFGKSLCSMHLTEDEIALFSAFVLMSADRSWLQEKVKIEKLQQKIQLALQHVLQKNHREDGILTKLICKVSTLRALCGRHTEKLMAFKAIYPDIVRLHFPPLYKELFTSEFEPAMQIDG

[2] = molecular target: T2, Nuclear receptor ROR-alpha (Homo sapiens, UniProt P35398); assay: Partial agonist activity at GST-fussed RORalpha (unknown origin) assessed as recruitment of TIF2-BAP protein after overnight incubation by pull down assay
T2 sequence (P35398 whole entry): T1 sequence (whole entry)

[3] = molecular target: T1, Nuclear receptor ROR-alpha (Homo sapiens); assay: Partial agonist activity at GST-fussed RORalpha (unknown origin) assessed as recruitment of TIF2-BAP protein after overnight incubation by pull down assay relative to 7DC
[4] = molecular target: T1, Nuclear receptor ROR-alpha (Homo sapiens); assay: Partial agonist activity at GST-fussed RORalpha (unknown origin) assessed as recruitment of TIF2-BAP protein at 30 uM after overnight incubation by pull down assay relative to 7DC

Activity [1] | EC50 [2] [µM] | Emax [3] [%] | Activity [4] | SMILES
 | 8.1 | 39 |  | CC1=C(C(=O)OCCOc2ccccc2)C(c2ccc(OCc3ccccc3)cc2)NC(=O)N1 (racemic)
inactive |  | 88 |  | CCOc1cc(C2NC(=O)NC(C)=C2C(C)=O)ccc1OCc1ccccc1Cl (stereo in doubt; 1) [listing 1 of 2 here]
inactive | 28.2 | 48 |  | COc1cc(C2NC(=O)NC(C)=C2C(C)=O)ccc1OCc1ccccc1Cl (racemic)
inactive | > 30 | 80 |  | COc1cc(C2NC(=O)NC(C)=C2C(=O)OCC(F)(F)F)ccc1OCc1ccccc1 (racemic)
inactive | > 30 | 12 |  | CC1=C(C(=O)OCC(F)(F)F)C(c2ccc(OCc3ccccc3)cc2)NC(=O)N1 (racemic)
inactive |  | 85 |  | CCOc1cc(C2NC(=O)NC(C)=C2C(C)=O)ccc1OCc1ccccc1Cl (single isomer, unassigned; enantiomer 1) [listing 1 of 2 here]
inactive | 26.2 | 55 |  | COc1cccc(COC(=O)C2=C(C)NC(=O)NC2c2ccc(OCc3ccccc3)c(OC)c2)c1 (racemic)
inactive |  |  | inactive | COc1cc(C2NC(=O)NC(C)=C2C(=O)NCc2ccccc2)ccc1OCc1ccccc1 (racemic)
inactive |  |  | inactive | CC1=C(C(=O)OCC(C)C)C(c2ccc(OCc3ccccc3)cc2)NC(=O)N1 (racemic)
inactive |  |  | inactive | COc1cc(C2NC(=O)NC(C)=C2C(=O)OCCOC(C)C)ccc1OCc1ccccc1 (racemic)
inactive |  |  | inactive | CCOC(=O)C1=C(C)NC(=O)NC1c1cc(OC)c(O)cc1Cl (racemic)
inactive | 12.5 | 70 |  | COc1cc(C2NC(=O)NC(C)=C2C(=O)OCc2ccc3c(c2)OCO3)ccc1OCc1ccccc1 (racemic)
inactive | 26.3 | 43 |  | COc1ccc(COC(=O)C2=C(C)NC(=O)NC2c2ccc(OCc3ccccc3)c(OC)c2)cc1OC (racemic)
inactive | > 19 | 29 |  | CCOC(=O)C1=C(C)N(C)C(=O)NC1c1ccc(OCc2ccccc2)c(OC)c1 (racemic)

Further lines, the compound ahead of its results:

SMILES | Activity [1] | EC50 [2] [µM] | Emax [3] [%] | Activity [4]
CCOC(=O)C1=C(C)NC(=O)NC1c1ccc(OCc2ccccc2)cc1 (racemic) | inactive | 4.3 | 25 | 
CCOC(=O)C1=C(C)NC(=O)NC1c1cc(OC)c(OCc2ccccc2Cl)cc1Cl (racemic) |  | 5.5 | 55 | 
COc1cc(C2NC(=O)NC(C)=C2C(C)=O)ccc1OCc1ccccc1 (racemic) | inactive |  |  | inactive
CCOC(=O)C1=C(C)NC(=O)NC1c1ccc(OCCc2ccccc2)c(OC)c1 (racemic) | inactive | 20.3 | 36 | 
COC(=O)C1=C(C)NC(=O)NC1c1ccc(OCc2ccccc2)c(OC)c1 (racemic) | inactive | 13.1 | 33 | 
COc1ccc(COC(=O)C2=C(C)NC(=O)NC2c2ccc(OCc3ccccc3)c(OC)c2)cc1 (racemic) | inactive | 10.9 | 19 | 
CCOC(=O)C1=C(CC)NC(=O)NC1c1ccc(OCc2ccccc2)c(OC)c1 (racemic) | inactive | > 30 | > 45 | 
COc1cc(C2NC(=O)NC(C)=C2C(=O)OCC2CCCCC2)ccc1OCc1ccccc1 (racemic) | inactive |  |  | inactive
CCCOc1ccc(C2NC(=O)NC(C)=C2C(=O)OCC)cc1OC (racemic) | inactive |  |  | inactive
C=CCOC(=O)C1=C(C)NC(=O)NC1c1ccc(OCc2ccccc2)c(OC)c1 (racemic) | inactive | 22.9 | 76 | 
CCOc1cc(C2NC(=O)NC(C)=C2C(C)=O)ccc1OCc1ccccc1Cl (single isomer, unassigned; enantiomer 2) [listing 1 of 2 here] |  | > 30 |  | 
COc1cc(C2NC(=O)NC(C)=C2C(N)=O)ccc1OCc1ccccc1 (racemic) | inactive |  |  | inactive
CCOc1cc(C2NC(=O)NC(C)=C2C(C)=O)ccc1OCc1ccccc1Cl (single isomer, unassigned; enantiomer 1) [listing 2 of 2 here] |  | 10.9 |  | 
CCOC(=O)C1=C(C)NC(=O)NC1c1ccc(OCc2ccccc2)c(OC)c1 (racemic) |  | 8.9 | 56 | 
CCC(C)NC(=O)C1=C(C)NC(=O)NC1c1ccc(OCc2ccccc2)cc1 (racemic) | inactive |  |  | inactive
COc1cc(C2NC(=O)NC(C)=C2C(=O)O)ccc1OCc1ccccc1 (racemic) | inactive |  |  | inactive
COc1cc(C2NC(=O)NC(C)=C2C(=O)OCC2CCCO2)ccc1OCc1ccccc1 (racemic) | inactive |  |  | inactive
CCCCOC(=O)C1=C(C)NC(=O)NC1c1ccc(OCc2ccccc2)c(OC)c1 (racemic) | inactive | 14 | 58 | 
COc1cc(C2NC(=O)NC(C)=C2C(=O)OCc2ccccc2)ccc1OCc1ccccc1 (racemic) | inactive | > 30 | 44 | 
CCOc1cc(C2NC(=O)NC(C)=C2C(C)=O)ccc1OCc1ccccc1Cl (single isomer, unassigned; enantiomer 2) [listing 2 of 2 here] | inactive |  | > 41 | 
CCOC(=O)C1=C(C)NC(=O)N(C)C1c1ccc(OCc2ccccc2)c(OC)c1 (racemic) | inactive | > 30 | 19 | 
COc1cc(C2NC(=O)NC(C)=C2C(=O)OCCSC)ccc1OCc1ccccc1 (racemic) | inactive | > 30 | 27 | 
COc1cc(C2NC(=O)NC(C)=C2C(=O)OCCc2ccccc2)ccc1OCc1ccccc1 (racemic) | inactive |  |  | inactive
CCOc1cc(C2NC(=O)NC(C)=C2C(C)=O)ccc1OCc1ccccc1Cl (stereo in doubt; 1) [listing 2 of 2 here] |  | 12.7 |  | 
CCOC(=O)C1=C(C)NC(=O)NC1c1ccc(OCCCc2ccccc2)c(OC)c1 (racemic) | inactive |  |  | inactive
CCOC(=O)C1=C(C)NC(=O)NC1c1cc(OC)c(OC)cc1Cl (racemic) | inactive |  |  | inactive
CC1=C(C(=O)Nc2ccccc2)C(c2ccc(OCc3ccccc3)cc2)NC(=O)N1 (racemic) | inactive |  |  | inactive
